The values that follow come from BindingDB's records for doi:10.1124/jpet.102.047092 (Case Western Reserve University, 2003).

Structures are written as SMILES.

Among the targets are Histamine H1 receptor (Rattus norvegicus, UniProt P31390); Vasopressin V2 receptor (Homo sapiens, UniProt P30518); Histamine H4 receptor (Homo sapiens, UniProt Q9H3N8); Histamine H2 receptor (Homo sapiens, UniProt P25021); Nischarin (Rattus norvegicus, UniProt Q4G017).
Test [1] deals with Sodium-dependent serotonin transporter (Homo sapiens, UniProt P31645).
For test [2], the target named is 5-hydroxytryptamine receptor 1B (Homo sapiens, UniProt P28222).
Test [3] addresses 5-hydroxytryptamine receptor 1D (Homo sapiens, UniProt P28221).
For test [4], the target named is T1, Alpha-2B adrenergic receptor (Homo sapiens, UniProt P18089).
T1 sequence (P18089 whole entry): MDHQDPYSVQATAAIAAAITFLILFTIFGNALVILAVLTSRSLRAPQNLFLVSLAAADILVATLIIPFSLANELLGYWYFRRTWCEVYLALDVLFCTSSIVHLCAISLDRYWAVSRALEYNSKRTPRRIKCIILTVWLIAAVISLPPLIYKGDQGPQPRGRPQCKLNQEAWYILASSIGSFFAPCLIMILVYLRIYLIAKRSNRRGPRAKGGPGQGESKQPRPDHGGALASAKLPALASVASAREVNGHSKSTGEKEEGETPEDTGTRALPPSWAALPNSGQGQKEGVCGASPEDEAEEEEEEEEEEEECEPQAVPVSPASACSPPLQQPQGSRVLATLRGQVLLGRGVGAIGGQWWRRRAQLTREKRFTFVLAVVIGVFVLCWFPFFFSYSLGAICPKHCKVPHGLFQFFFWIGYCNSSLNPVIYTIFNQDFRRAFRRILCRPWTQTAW

In a further test the target is T2, Oxytocin receptor (Homo sapiens, UniProt P30559).
T2 sequence (P30559 whole entry): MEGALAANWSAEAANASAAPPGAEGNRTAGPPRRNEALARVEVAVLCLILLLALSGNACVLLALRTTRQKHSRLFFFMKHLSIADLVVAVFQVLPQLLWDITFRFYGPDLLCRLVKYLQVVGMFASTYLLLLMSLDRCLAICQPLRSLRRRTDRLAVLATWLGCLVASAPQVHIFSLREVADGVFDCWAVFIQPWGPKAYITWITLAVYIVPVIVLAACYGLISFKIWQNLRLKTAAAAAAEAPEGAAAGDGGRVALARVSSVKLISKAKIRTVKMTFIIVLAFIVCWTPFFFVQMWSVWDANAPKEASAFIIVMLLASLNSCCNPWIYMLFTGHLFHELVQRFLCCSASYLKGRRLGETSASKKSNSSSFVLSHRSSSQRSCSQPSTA

Test [5] has as its target Beta-1 adrenergic receptor (Rattus norvegicus, UniProt P18090).
Test [6] concerns the target Neuronal acetylcholine receptor subunit alpha-3 (Homo sapiens, UniProt P32297).
Test [7] has as its target Metabotropic glutamate receptor 5 (Rattus norvegicus, UniProt P31424).
The target of test [8] is Metabotropic glutamate receptor 4 (Rattus norvegicus, UniProt P31423).
Test [9] has as its target Metabotropic glutamate receptor 8 (Rattus norvegicus, UniProt P70579).
Test [10] concerns the target Metabotropic glutamate receptor 6 (Rattus norvegicus, UniProt P35349).
Test [11] concerns the target Metabotropic glutamate receptor 2 (Rattus norvegicus) (UniProt P31421).
For test [12], the target named is Metabotropic glutamate receptor 1 (Rattus norvegicus, UniProt P23385).
Chain of Metabotropic glutamate receptor 1 (P23385 whole entry): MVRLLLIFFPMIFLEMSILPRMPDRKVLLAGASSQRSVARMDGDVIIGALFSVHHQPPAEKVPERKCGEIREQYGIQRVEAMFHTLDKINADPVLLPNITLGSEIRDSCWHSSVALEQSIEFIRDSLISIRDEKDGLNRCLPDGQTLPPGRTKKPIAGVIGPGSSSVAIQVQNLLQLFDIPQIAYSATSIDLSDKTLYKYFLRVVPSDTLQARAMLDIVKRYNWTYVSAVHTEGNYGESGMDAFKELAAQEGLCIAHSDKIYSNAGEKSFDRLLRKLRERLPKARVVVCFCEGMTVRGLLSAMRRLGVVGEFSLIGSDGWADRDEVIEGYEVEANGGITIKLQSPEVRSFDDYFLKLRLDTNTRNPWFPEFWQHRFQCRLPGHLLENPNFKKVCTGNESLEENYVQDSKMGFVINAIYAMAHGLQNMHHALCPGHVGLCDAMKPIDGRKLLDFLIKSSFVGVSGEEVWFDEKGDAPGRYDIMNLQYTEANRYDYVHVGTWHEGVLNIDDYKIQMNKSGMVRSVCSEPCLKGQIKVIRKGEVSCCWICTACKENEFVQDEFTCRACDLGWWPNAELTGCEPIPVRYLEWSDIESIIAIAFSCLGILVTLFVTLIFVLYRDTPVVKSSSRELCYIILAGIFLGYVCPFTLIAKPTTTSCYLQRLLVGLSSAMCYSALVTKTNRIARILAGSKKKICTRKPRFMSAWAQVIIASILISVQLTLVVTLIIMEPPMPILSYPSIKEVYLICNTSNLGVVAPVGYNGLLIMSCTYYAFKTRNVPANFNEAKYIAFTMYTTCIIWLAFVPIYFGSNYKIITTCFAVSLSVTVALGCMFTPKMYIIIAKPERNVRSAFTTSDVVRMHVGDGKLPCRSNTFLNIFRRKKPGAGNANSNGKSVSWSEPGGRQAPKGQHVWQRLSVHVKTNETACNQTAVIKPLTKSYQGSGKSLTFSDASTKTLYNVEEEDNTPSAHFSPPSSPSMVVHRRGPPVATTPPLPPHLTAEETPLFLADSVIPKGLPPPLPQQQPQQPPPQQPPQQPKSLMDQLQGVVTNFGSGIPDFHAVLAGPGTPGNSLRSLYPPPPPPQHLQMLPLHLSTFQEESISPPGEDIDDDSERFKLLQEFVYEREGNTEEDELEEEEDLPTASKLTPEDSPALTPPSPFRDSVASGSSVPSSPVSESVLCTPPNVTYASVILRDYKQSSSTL

Chain of Neuronal acetylcholine receptor subunit alpha-3 (P32297 whole entry): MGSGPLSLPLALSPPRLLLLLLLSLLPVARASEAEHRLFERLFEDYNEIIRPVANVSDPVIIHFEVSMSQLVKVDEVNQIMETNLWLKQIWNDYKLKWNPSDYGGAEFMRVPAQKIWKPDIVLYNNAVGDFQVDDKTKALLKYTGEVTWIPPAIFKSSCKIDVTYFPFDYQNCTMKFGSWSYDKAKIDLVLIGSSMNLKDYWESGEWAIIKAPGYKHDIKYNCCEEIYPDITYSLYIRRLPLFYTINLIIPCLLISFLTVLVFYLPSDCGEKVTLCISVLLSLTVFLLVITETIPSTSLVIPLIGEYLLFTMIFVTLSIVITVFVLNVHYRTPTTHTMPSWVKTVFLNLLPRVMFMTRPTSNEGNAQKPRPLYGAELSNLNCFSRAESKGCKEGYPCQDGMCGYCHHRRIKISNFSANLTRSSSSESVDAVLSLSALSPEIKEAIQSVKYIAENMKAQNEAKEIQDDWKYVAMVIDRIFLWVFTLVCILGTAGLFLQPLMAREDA
Chain of Histamine H1 receptor (P31390 whole entry): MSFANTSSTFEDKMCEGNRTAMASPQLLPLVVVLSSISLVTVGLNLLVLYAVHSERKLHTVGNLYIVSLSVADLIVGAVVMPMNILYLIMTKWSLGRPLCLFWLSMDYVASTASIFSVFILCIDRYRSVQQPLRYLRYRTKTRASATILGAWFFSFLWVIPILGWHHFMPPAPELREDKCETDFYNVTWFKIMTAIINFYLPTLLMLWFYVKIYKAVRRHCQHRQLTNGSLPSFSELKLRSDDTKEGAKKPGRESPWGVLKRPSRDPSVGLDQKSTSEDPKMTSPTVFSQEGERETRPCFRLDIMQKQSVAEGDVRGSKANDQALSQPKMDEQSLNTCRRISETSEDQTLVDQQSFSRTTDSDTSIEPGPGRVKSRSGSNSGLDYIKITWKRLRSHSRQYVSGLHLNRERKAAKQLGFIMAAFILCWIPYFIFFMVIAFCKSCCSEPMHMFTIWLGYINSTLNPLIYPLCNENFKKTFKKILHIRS
Chain of Metabotropic glutamate receptor 5 (P31424 whole entry): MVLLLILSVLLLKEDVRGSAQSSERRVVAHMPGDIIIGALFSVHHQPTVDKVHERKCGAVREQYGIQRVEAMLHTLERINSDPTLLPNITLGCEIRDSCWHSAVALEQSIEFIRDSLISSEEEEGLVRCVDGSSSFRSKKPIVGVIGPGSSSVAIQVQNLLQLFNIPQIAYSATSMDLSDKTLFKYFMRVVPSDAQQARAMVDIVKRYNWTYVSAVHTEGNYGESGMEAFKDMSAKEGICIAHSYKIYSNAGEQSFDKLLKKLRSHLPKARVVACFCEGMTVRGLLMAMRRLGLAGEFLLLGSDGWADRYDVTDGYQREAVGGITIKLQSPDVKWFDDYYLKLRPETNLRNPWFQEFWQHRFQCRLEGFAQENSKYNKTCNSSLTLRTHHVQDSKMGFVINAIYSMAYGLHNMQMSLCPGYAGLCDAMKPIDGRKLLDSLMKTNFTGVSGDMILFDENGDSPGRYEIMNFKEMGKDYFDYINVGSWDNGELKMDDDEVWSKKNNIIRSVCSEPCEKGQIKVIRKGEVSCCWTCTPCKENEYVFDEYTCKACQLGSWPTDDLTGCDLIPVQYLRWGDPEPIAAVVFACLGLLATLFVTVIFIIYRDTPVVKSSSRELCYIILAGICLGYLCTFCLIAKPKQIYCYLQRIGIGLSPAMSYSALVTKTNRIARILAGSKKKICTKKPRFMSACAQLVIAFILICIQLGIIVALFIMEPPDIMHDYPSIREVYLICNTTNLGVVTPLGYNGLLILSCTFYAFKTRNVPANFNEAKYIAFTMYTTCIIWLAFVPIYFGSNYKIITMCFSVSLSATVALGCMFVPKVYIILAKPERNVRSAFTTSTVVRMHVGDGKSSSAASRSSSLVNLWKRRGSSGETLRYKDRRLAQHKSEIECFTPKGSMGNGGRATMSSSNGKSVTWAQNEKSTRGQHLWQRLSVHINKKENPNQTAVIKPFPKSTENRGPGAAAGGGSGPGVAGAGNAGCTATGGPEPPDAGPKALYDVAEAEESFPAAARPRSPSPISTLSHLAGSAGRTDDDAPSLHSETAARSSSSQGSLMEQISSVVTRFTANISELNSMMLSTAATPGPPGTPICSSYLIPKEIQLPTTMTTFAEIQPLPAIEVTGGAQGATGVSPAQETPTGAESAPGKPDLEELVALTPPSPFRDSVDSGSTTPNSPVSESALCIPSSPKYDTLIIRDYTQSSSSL
Chain of 5-hydroxytryptamine receptor 1B (P28222 whole entry): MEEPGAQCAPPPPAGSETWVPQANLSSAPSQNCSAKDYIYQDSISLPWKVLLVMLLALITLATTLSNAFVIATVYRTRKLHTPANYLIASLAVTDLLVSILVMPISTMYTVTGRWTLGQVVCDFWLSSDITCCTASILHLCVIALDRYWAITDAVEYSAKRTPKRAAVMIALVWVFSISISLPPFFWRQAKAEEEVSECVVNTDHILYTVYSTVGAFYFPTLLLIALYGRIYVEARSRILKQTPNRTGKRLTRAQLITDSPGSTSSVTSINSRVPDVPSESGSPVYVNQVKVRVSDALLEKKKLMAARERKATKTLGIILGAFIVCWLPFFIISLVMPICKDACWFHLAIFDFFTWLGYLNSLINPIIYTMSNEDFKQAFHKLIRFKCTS
Chain of Histamine H4 receptor (Q9H3N8 whole entry): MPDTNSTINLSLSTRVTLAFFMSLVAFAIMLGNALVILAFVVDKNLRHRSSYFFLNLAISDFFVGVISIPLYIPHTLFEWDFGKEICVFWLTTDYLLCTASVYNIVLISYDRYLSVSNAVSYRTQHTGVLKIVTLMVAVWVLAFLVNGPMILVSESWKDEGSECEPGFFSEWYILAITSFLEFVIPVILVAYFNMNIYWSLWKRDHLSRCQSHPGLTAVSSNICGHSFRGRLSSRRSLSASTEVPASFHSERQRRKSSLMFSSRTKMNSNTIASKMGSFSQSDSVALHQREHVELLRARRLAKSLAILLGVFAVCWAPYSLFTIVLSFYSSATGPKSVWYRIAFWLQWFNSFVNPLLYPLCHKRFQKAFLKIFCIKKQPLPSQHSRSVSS
Chain of Sodium-dependent serotonin transporter (P31645 whole entry): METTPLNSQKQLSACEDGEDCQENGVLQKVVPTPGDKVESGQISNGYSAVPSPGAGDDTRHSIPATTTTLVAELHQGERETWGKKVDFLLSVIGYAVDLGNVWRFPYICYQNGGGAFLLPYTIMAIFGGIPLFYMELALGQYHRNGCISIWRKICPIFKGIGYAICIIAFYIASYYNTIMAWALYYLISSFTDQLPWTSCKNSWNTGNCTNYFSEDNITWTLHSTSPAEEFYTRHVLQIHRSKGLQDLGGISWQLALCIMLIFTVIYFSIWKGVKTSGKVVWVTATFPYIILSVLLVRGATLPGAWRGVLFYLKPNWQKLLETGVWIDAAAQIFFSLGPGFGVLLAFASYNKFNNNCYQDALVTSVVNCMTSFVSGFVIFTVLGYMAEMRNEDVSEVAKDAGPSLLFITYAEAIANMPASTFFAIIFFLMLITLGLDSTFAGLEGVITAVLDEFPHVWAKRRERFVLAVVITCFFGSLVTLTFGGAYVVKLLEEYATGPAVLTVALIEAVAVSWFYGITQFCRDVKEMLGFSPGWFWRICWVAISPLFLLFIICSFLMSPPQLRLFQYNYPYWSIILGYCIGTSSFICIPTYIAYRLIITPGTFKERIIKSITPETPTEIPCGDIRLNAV

`N[C@@H](CCS(=O)(=O)O)C(=O)O` (racemic): the inhibition constant (Ki) (in test [1]; in [2]; in test [3]; in test [4]; on Histamine H1 receptor; on Oxytocin receptor) was more than 10 µM throughout. For the same compound, the Ki on Vasopressin V2 receptor is more than 10 µM.
As to `N[C@@H](CCS)C(=O)O` (racemic) [CAS_778], the inhibitory constant (Ki) (in [1]; at Histamine H4 receptor; at Histamine H2 receptor; in test [2]; in [3]; in [5]) was more than 10 µM in each case. Further, the Ki (in test [4]; in test [6]; on Histamine H1 receptor; at Oxytocin receptor; at Vasopressin V2 receptor) was more than 10 µM in each case.
`NC(CS(=O)O)C(=O)O` (stereo not drawn) [CAS_109]: the Ki (in [1]; at Histamine H4 receptor; on Histamine H2 receptor; in [2]; in test [3]; in [5]) was more than 10 µM throughout. In addition, the Ki (in [4]; in test [6]; at Histamine H1 receptor; on Nischarin; at Oxytocin receptor; at Vasopressin V2 receptor) was more than 10 µM each time. The EC50 in test [7], in test [8], in test [9], in test [10], in test [11] and in test [12] was more than 10 µM in each case.
For the compound `NC(CSSCC(N)C(=O)O)C(=O)O` (stereo not drawn) [CAS_595], the Ki (in [1]; at Histamine H4 receptor; on Histamine H2 receptor; in [2]; in test [3]; in [5]) was more than 10 µM throughout. For the same compound, the inhibition constant (Ki) (in [4]; in test [6]; at Histamine H1 receptor; on Nischarin; on Oxytocin receptor; at Vasopressin V2 receptor) was more than 10 µM each time.
As for `N[C@@H](CS)C(=O)O` [CAS_5862], the Ki (in test [1]; on Histamine H4 receptor; on Histamine H2 receptor; in [2]; in test [3]; in test [5]) was more than 10 µM throughout. For the same compound, the Ki (in [4]; in [6]; on Histamine H1 receptor; at Nischarin; on Oxytocin receptor; at Vasopressin V2 receptor) was more than 10 µM throughout.
`CSCC[C@@H](N)C(=O)O` [CAS_6137]: the Ki (in test [1]; on Histamine H4 receptor; at Histamine H2 receptor; in [2]; in [3]; in [5]) was more than 10 µM throughout. The Ki (in test [4]; in test [6]; at Histamine H1 receptor; on Nischarin; on Oxytocin receptor; on Vasopressin V2 receptor) was more than 10 µM in each case.
Consider `N[C@H](CCS(=O)(=O)O)C(=O)O` [D-homocysteic acid], for which the inhibitory constant (Ki) (in test [1]; on Histamine H4 receptor; on Histamine H2 receptor; in [2]; in test [3]; in test [5]) was more than 10 µM throughout. Further, the inhibition constant Ki (in [4]; in test [6]; at Histamine H1 receptor; on Nischarin; on Oxytocin receptor; at Vasopressin V2 receptor) was more than 10 µM in each case.
Consider `N[C@H](CCS(=O)O)C(=O)O` [D-homocysteine sulfinic acid], for which the inhibition constant (Ki) (in test [1]; at Histamine H4 receptor; at Histamine H2 receptor; in test [2]; in test [3]; in test [5]) was more than 10 µM each time. Further, the inhibitory constant (Ki) (in test [4]; in test [6]; at Histamine H1 receptor; at Nischarin; at Oxytocin receptor; at Vasopressin V2 receptor) was more than 10 µM each time.
With `N[C@@H]1CCSC1=O` [D-homocysteine thiolactone], the inhibition constant (Ki) (in test [1]; at Histamine H4 receptor; on Histamine H2 receptor; in [5]; in test [6]; at Nischarin) was more than 10 µM each time.
As to `N[C@H](CS(=O)(=O)O)C(=O)O` [L-cysteic acid], the inhibition constant Ki (in test [1]; at Histamine H4 receptor; on Histamine H2 receptor; in test [2]; in test [3]; in test [5]) was more than 10 µM in each case. The inhibition constant Ki (in test [6]; at Histamine H1 receptor; on Nischarin; on Oxytocin receptor; on Vasopressin V2 receptor) was more than 10 µM each time. Further, the EC50 in test [7], in [8], in [9], in test [10], in test [11] and in test [12] was more than 10 µM each time.
As for `N[C@@H](CCS(=O)O)C(=O)O` [L-homocysteine sulfinic acid], the Ki (on Histamine H4 receptor; on Histamine H2 receptor; in test [2]; in test [3]; in test [5]; in test [4]) was more than 10 µM each time. The inhibition constant (Ki) (in [6]; at Histamine H1 receptor; at Nischarin; on Oxytocin receptor; on Vasopressin V2 receptor) was more than 10 µM throughout. The EC50 in test [7] is 5.75 µM; in test [8], more than 10 µM; in test [9], more than 10 µM; in [10] it was 6.17 µM; in test [11], more than 10 µM; in test [12], more than 10 µM.
Turning to `N[C@H]1CCSC1=O` [NSC_134505], the inhibition constant Ki (in test [1]; at Histamine H4 receptor; on Histamine H2 receptor; in test [5]; in test [4]; in test [6]) was more than 10 µM in each case. This compound showed a Ki at Nischarin of more than 10 µM.

What is called Ki is the equilibrium dissociation constant of an inhibitor or competing ligand from its target. A low value points to tighter binding. What is called EC50 is the concentration at which the effect is half-maximal. Low readings indicate an effect from little substance, high ones a need for much substance.
